Laboratory results from patent US11179368B2, “Substituted indoline derivatives as dengue viral replication inhibitors” (JANSSEN PHARMACEUTICALS, INC., priority 2017, dated 2021).
Structures can show the parent of a compound that is named as a salt. Where two headings read alike, the source gives them in different places.

How the values were obtained:
[1] = tested on: Vero cells; conditions: African green monkey
[2] = tested on: DENV-2 16681 strain; experiment: DENV-2 antiviral assay (eGFP-labeled virus in Vero cells); type: cell-based, Dengue virus; conditions: for EC50: DENV-2 16681 eGFP, Vero cells, MOI 0.5, 3 days; for SI: SI=CC50/EC50, DENV-2 antiviral assay
[3] = tested on: DENV-3 strain H87; experiment: Tetravalent RT-qPCR assay, serotype 3; type: cell-based, Dengue virus; conditions: for EC50: Dengue virus, DENV3, 72 h, RT-qPCR serotype 3 H87, Vero cells, day 3; for SI: RT-qPCR serotype 3 H87
Procedure: (§1) The antiviral activity of the compounds of the invention was tested against DENV-1 strain TC974#666 (NCPV), DENV-2 strain 16681, DENV-3 strain H87 (NCPV) and DENV-4 strain H241 (NCPV) in a RT-qPCR assay. Therefore, Vero cells were infected with either DENV-1, or -2, or -3, or -4 in the presence or absence of test compounds. At day 3 post-infection, the cells were lysed and cell lysates were used to prepare cDNA of both a viral target (the 3′UTR of DENV; Table 2) and a cellular reference gene (1-actin, Table 2). Subsequently, a duplex real time PCR was performed on a Lightcycler480 instrument. The generated Cp value is inversely proportional to the amount of RNA expression of these targets. Inhibition of DENV replication by a test compound results in a shift of Cp's for the 3′UTR gene. On the other hand, if a test compound is toxic to the cells, a similar effect on β-actin expression will be observed. The comparative ΔΔCp method is used to calculate EC50, which is based on the relative gene expression of the target gene (3′UTR) normalized with the cellular housekeeping gene (β-actin). In addition, CC50 values are determined based on the Cp values acquired for the housekeeping gene β-actin.
(§2) The culture medium consisted of minimal essential medium supplemented with 2% of heat-inactivated fetal calf serum, 0.04% gentamycin (50 mg/mL) and 2 mM of L-glutamine. Vero cells, obtained from ECACC, were suspended in culture medium and 75 μL/well was added in 96-well plates (10000 cells/well), which already contain the antiviral compounds. […] In addition, each plate contains wells which are assigned as virus controls (containing cells and virus in the absence of compound) and cell controls (containing cells in the absence of virus and compound). Once the cells were added in the plates, the plates were incubated in a fully humidified incubator (37° C., 5% CO2) until the next day. Dengue viruses serotype-1, 2, 3 and 4 were diluted in order to obtain a Cp of ˜22-24 in the assay. Therefore, 25 μL of virus suspension was added to all the wells containing test compound and to the wells assigned as virus control. In parallel, 25 μL of culture medium was added to the cell controls. Next, the plates were incubated for 3 days in a fully humidified incubator (37° C., 5% CO2). After 3 days, the supernatant was removed from the wells and the cells were washed twice with ice-cold PBS (˜100 μL). The cell pellets within the 96-well plates were stored at −80° C. for at least 1 day. Next, RNA was extracted using the Cells-to-CT™ lysis kit, according to the manufacturer's guideline (Life Technologies). The cell lysates can be stored at −80° C. or immediately used in the reverse transcription step.
(§3) In preparation of the reverse transcription step, mix A (table 3A) was prepared and 7.57 μL/well was dispensed in a 96-well plate. After addition of 5 μL of the cell lysates, a five minute denaturation step at 75° C. was performed (table 3B). Afterwards, 7.43 μL of mix B was added (table 3C) and the reverse transcription step was initiated (table 3D) to generate cDNA.
(§4) Finally, a RT-qPCR mix was prepared, mix C (table 4A), and 22.02 μL/well was dispensed in 96-well LightCycler qPCR plates to which 3 μL of cDNA was added and the qPCR was performed according to the conditions in table 4B on a LightCycler 480.
(§5) Using the LightCycler software and an in-house LIMS system, dose response curves for each compound were calculated and the half maximal effective concentration (EC50) and the half maximal cytotoxic concentration (CC50) were determined (Tables 5-8).

[4] = tested on: DENV-4 strain H241; experiment: Tetravalent RT-qPCR assay, serotype 4; type: cell-based, Dengue virus; conditions: for EC50: Dengue virus; for SI: RT-qPCR serotype 4 H241
Procedure: as §1, §2, §3, §4, §5

[5] = in vitro; type: cell-based; conditions: African green monkey, CC50
Procedure: as §1, §2, §3, §4, §5

[6] = tested on: DENV-2 strain 16681; experiment: Tetravalent RT-qPCR assay, serotype 2; type: cell-based, Dengue virus; conditions: for EC50: Dengue virus, DENV2, 72 h, RT-qPCR serotype 2 16681, Vero cells, day 3; for SI: RT-qPCR serotype 2 16681
Procedure: as §1, §2, §3, §4, §5

[7] = tested on: DENV-1 strain TC974#666; experiment: Tetravalent RT-qPCR assay, serotype 1; type: cell-based, Dengue virus; conditions: for EC50: Dengue virus, DENV1, 72 h, RT-qPCR serotype 1 TC974#666, Vero cells, day 3; for SI: RT-qPCR serotype 1 TC974#666
Procedure: as §1, §2, §3, §4, §5

[8] = in vitro; conditions: African green monkey
[9] = tested on: Vero cells; experiment: in vitro; type: cell-based; conditions: African green monkey, 3 days
Procedure: as §1, §2, §3, §4, §5

[10] = DENV4, 72 h, RT-qPCR serotype 4 H241, Vero cells, day 3, read-out: EC50

Row | SMILES | melting point | CC50 [1] | EC50 [2] | SI [2] | EC50 [3] | SI [3] | EC50 ([4]; DENV4, Vero, 72 h) | SI [4] | CC50 at 3 days [5] | EC50 [6] | SI [6] | EC50 [7] | SI [7] | CC50 [8] | EC50 [4, 10] | CC50 [9]
1 | COc1cc(NC(C(=O)N2CCc3ccc(OC(F)(F)F)cc32)c2ccc(Cl)cc2OCCCC(=O)O)cc(S(C)(=O)=O)c1 (racemic) (as salt: HCl) (hydrate or solvate) [Compound 9, 4-(5-chloro-2-(1-((3-methoxy-5-(methylsulfonyl)phenyl)amino)-2-oxo-2-(6-(trifluoromethoxy)indolin-1-yl)ethyl)phenoxy)butanoic acid] | 155 °C |  |  |  |  |  |  |  |  |  |  |  |  |  |  | 
2 | COc1cc(NC(C(=O)N2CCc3ccc(C(F)(F)F)cc32)c2ccc(F)cc2OCCO)cc(S(C)(=O)=O)c1 (single isomer, unassigned) [Compound 1A] |  | 12000 nM | 2400 nM | 4.8 |  |  |  |  |  |  |  |  |  |  |  | 
3 | COc1cc(NC(C(=O)N2CCc3ccc(C(F)(F)F)cc32)c2ccc(F)cc2OCCO)cc(S(C)(=O)=O)c1 (single isomer, unassigned) [Compound 1B] |  | 3400 nM | 1.4 nM | >1980 | 20 nM | >127 | 130 nM | 23 | > 2500 nM | 1.1 nM | 4670 | 1.5 nM | >2860 |  |  | 
4 | COc1cc(NC(C(=O)N2CCc3cc(OC)c(C(F)(F)F)cc32)c2ccc(F)cc2OCCO)cc(S(C)(=O)=O)c1 (single isomer, unassigned) [Compound 2A] |  |  | 0.93 nM | 16400 | 20 nM | >157 |  | 35 |  | 1.3 nM | 4910 | 4.6 nM | >981 | 9600 nM | 100 nM | 
5 | COc1cc(NC(C(=O)N2CCc3cc(OC)c(C(F)(F)F)cc32)c2ccc(F)cc2OCCO)cc(S(C)(=O)=O)c1 (single isomer, unassigned) [Compound 2B] |  | 18000 nM | 170 nM | 105 |  |  |  |  |  |  |  |  |  |  |  | 
6 | COc1cc(NC(C(=O)N2CCc3ccc(OC(F)(F)F)cc32)c2ccc(F)cc2OCCO)cc(S(C)(=O)=O)c1 (single isomer, unassigned) [Compound 3B] |  | 8700 nM | 0.61 nM | 16300 | 13 nM | >444 |  | >32 | > 2500 nM | 0.9 nM | 4760 | 1.1 nM | >3640 |  | 72 nM | 
7 | COc1cc(NC(C(=O)N2CCc3ccc(C(F)(F)F)cc32)c2ccc(Cl)cc2OCCO)cc(S(C)(=O)=O)c1 (single isomer, unassigned) [Compound 4A] |  |  | 0.41 nM | 15000 | 13 nM | >234 |  | 69 | > 2500 nM | 0.45 nM | 11700 | 0.75 nM | >5470 | 6000 nM | 44 nM | 
8 | COc1cc(NC(C(=O)N2CCc3ccc(C(F)(F)F)cc32)c2ccc(Cl)cc2OCCO)cc(S(C)(=O)=O)c1 (single isomer, unassigned) [Compound 4B] |  | 11000 nM | 16 nM | 693 |  |  |  |  |  |  |  |  |  |  |  | 
9 | COc1cc(NC(C(=O)N2CCc3cc(OC)c(C(F)(F)F)cc32)c2ccc(Cl)cc2OCCO)cc(S(C)(=O)=O)c1 (single isomer, unassigned) [Compound 5B] |  | 8500 nM | 0.23 nM | >16800 | 6.7 nM | >752 |  | 86 |  | 0.24 nM | >17100 | 0.94 nM | 8640 |  | 26 nM | 
10 | COc1cc(NC(C(=O)N2CCc3ccc(OC(F)(F)F)cc32)c2ccc(Cl)cc2OCCO)cc(S(C)(=O)=O)c1 (single isomer, unassigned) [Compound 6A] |  |  | 0.23 nM | >12000 | 2.6 nM | >1480 |  | 119 | > 2500 nM | 0.16 nM | >12600 | 0.16 nM | >41300 | 7300 nM | 26 nM | 
11 | COc1cc(NC(C(=O)N2CCc3ccc(OC(F)(F)F)cc32)c2ccc(Cl)cc2OCCO)cc(S(C)(=O)=O)c1 (single isomer, unassigned) [Compound 6B] |  | 10000 nM | 20 nM | 492 |  |  |  |  |  |  |  |  |  |  |  | 
12 | COc1cc(NC(C(=O)N2CCc3ccc(C(F)(F)F)cc32)c2ccc(Cl)cc2OCCCC(=O)O)cc(S(C)(=O)=O)c1 (single isomer, unassigned) [Compound 7B] |  | 11000 nM | 0.25 nM | 90600 | 5.2 nM | >473 |  | >186 | > 2500 nM | 0.19 nM | >13500 | 0.13 nM | >19200 |  | 24 nM | > 2500 nM
13 | COc1cc(NC(C(=O)N2CCc3cc(OC)c(C(F)(F)F)cc32)c2ccc(Cl)cc2OCCCC(=O)O)cc(S(C)(=O)=O)c1 (single isomer, unassigned) [Compound 8B] |  | 14000 nM | 1.2 nM | 6780 | 19 nM | 796 |  | 88 |  | 0.3 nM | 54300 | 1.2 nM | 10500 |  | 84 nM | 
14 | COc1cc(NC(C(=O)N2CCc3ccc(OC(F)(F)F)cc32)c2ccc(Cl)cc2OCCCC(=O)O)cc(S(C)(=O)=O)c1 (single isomer, unassigned) [Compound 9B] |  | 13000 nM | 0.15 nM | 83000 | 1.7 nM | >1840 |  | 1390 | > 2500 nM | 0.068 nM | >56500 | 0.1 nM | >45500 |  | 7.2 nM | 
